The data set deals with IKr expression in human iPSCDCMs. Briefly: IKr expression in human iPSCDCMs after 48 hour treatment with Endo-Porter transfected morpholino AS oligonucleotide, whole-cell patch clamp. Format: cell-based. From the text: Our approach is based on studies showing that morpholino anti-sense (AS) oligonucleotides increased HERG expression in HEK293 cells. We examined the ability of these endoporter (Endo-Porter delivery system) transfected morpholino AS oligonucleotides to increase IKr expression in human iPSCDCMs. The morpholino AS oligonucleotide Endo-Porter, is a proprietary weak-base amphiphilic peptide that was designed to deliver non-ionic substances into the cytosol/nuclear compartment of cells by an endocytosis-mediated process. Following a 48 hour treatment with morpholino AS oligonucleotide (alpha2NS 05Z) significant increase (p<0.05) in IKr expression was observed compared to naïve/vehicle and an inverse morpholino AS oligonucleotide control (MPL ZN9DSZ INV) (Morpholino AS oligonucleotide (n=28): 0.29±0.04 pA/pF, INV control (n=7): 0.11±0.08 pA/pF). […] In naïve/vehicle treated cells we observed a near equal frequency of cells expressing current densities <0.2 pA/pF and >0.2 pA/pF. However, following morpholino AS oligonucleotide treatment cells expressing current densities >0.2 pA/pF increased to 71% p<0.05 as shown in FIG. 4.

This note sets out measurements from patent US20200240980A1, “METHOD FOR DELAYED RECTIFIER CURRENT ENHANCEMENT, CHARACTERIZATION, AND ANALYSIS IN HUMAN INDUCED PLURIPOTENT STEM CELLS” (The Research Foundation for The State University of New York, priority 2017, published 2020).

With “5′-CAGAACACAGTAGTGAATCAAAACC-3′ (all phosphorodiamidate morpholino (PMO)) [alpha2NS 05Z, morpholino anti-sense oligonucleotide specific for a polyadenylation signal in Intron 9 of the KCNH2 gene]”, under “hiPSCDCMs after morpholino AS oligonucleotide treatment, p<0.05, near equal frequency in naïve/vehicle cells, FIG. 4”, the “cells expressing IKr current densities >0.2 pA/pF” value amounted to 71%. Besides, the IKr current density (hiPSCDCMs, 48 hour treatment, mean ± spread, n=28 (morpholino AS), n=7 (INV control)) is on record as 0.29±0.04 pA/pF. For the same substance, the “distribution of IKr current densities ≤0.2 pA/pF or >0.2 pA/pF versus naïve/vehicle cells” value (hiPSCDCMs, p<0.05, FIG. 4) was “significant shift”.
